From patent publication US20210181182A1, “METHOD FOR IDENTIFICATION OF PERTURBAGENS OF PARTICULAR BIOLOGICAL PROCESSES AND CELL SYSTEMS WITHIN LIVING CELLS” (priority 2018, published 2021)
Where two headings read alike, the source gives them in different places. Marks after values point to notes of the source that are not given here.

Columns and labels:
DNA damage = assay: FACTORIAL assay: weak / strong DNA damage TFAP clusters; format: cell-based, human; details: HepG2, 24 h, all tested concentrations
[1] = system: mitochondrial electron transport chain (mETC); assay: FACTORIAL assay: similarity of TFAP to the consensus (invariant) mETC TFAP; format: cell-based, human
HG19/HepG2 cells = format: cell-based
Experimental: Cell viability was evaluated by the XTT (2,3-Bis-(2-Methoxy-4-Nitro-5-Sulfophenyl)-2H-Tetrazolium-5-Carboxanilide) assay (ATCC) in HG19/HepG2 cells. As a baseline, cells are used that were treated with corresponding dilutions of the vehicle (DMSO). The viability data are an average of two replicates. The viability threshold was set at 80% viability.

[2] = system: mitochondria membrane potential; details: HepG2, 1-hour incubation at concentrations below 60 μM; cited from earlier work
Akt kinase = assay: FACTORIAL assay: similarity of TFAP to the invariant signature of Akt inhibitors; format: cell-based, human; details: for retrieved by querying the TFAP database with the invariant signature for AKT inhibitors: database of over 30,000 signatures
CDK = format: cell-based, human; details: HepG2, 24 h
HDAC = assay: FACTORIAL assay: similarity of TFAP to the consensus HDAC inhibitor TFAP; format: cell-based, human; details: for retrieved by querying the Attagene dataset with the HDAC TFAP: HepG2, ToxCast TFAP dataset
HepG2 cells [3] = assay: FACTORIAL assay: query of TFAPs against reference compound signatures of the Attagene TFAP database; format: cell-based, human; details: HepG2, 24 h
HepG2 cells [4] = assay: FACTORIAL assay: transition of the TFAP signature of glitazones with concentration; format: cell-based, human; details: HepG2, 24-hour treatment
[5] = in humans; cited from earlier work
[6] = system: ubiquitin (Ub)/proteasome pathway (UPP); assay: FACTORIAL assay: similarity of TFAP to the consensus UPP TFAP; format: cell-based, human
[7] = HepG2, 24 h incubation, each value at the concentration [uM]

O=c1[nH]cc(F)c(=O)[nH]1 [5-fluorouracil]
DNA damage TFAP elicited (weak or strong damage cluster) (DNA damage): only the weak damage TFAP

N.N.[Cl][Pt][Cl] [Cisplatin, reference compound]
Pearson correlation with the mETC TFAP, r [1, 7]: 0.824
cell numbers at the end of incubation (HG19/HepG2 cells): significantly reduced cell numbers
MMP assay hitCall [2]: 0*

C[S+](C)[O-] [DMSO]
retrieved by querying the TFAP database with the invariant signature for AKT inhibitors (Akt kinase): retrieved

CCc1cnn2c(NCc3ccc[n+]([O-])c3)cc(N3CCCC[C@H]3CCO)nc12 [Dinaciclib, reference compound]
similarity r to the invariant signature for CDK inhibitors (CDK; over three logs of concentrations): > 0.85

CC(C)NC[C@@H](C(=O)N1CCN(c2ncnc3c2[C@H](C)C[C@H]3O)CC1)c1ccc(Cl)cc1 [GDC-0068, Ipatasertib, reference compound]
similarity r to the invariant signature of AKT inhibitors (Akt kinase): > 0.80

Cn1nccc1Nc1nccc(-c2ccn([C@H](CO)c3ccc(Cl)c(F)c3)c(=O)c2)n1 [GDC-0994]
signature match at higher concentrations (HDAC inhibitors) (HDAC; HepG2, 24 h, above 2.2 uM): matched the invariant signature of HDAC inhibitors

CCN(CC)C(=O)c1ccc(Nc2nc(OCC3CCCCC3)c3[nH]cnc3n2)cc1 [NU6140, reference compound]
similarity r to the signature for a cadmium salt (HepG2 cells [3]; at 20 uM): 0.71
concentration with signature similar to the invariant signature for CDK inhibitors (CDK): 6.7 µM

NC(=O)N/N=C/c1ccc([N+](=O)[O-])o1 [Nitrofurazone, reference compound]
Pearson correlation with the mETC TFAP, r ([1]; 24 h): 0.856
MMP assay hitCall [2]: 0*

CO/C=C(/C(=O)OC)c1ccccc1COc1cccc(C(F)(F)F)n1 [Picoxystrobin]
Pearson correlation with the mETC TFAP, r [1, 7]: 0.885
MMP assay hitCall [2]: 1

CCN(CC)c1ccc2c(-c3ccccc3C(=O)O)c3ccc(=[N+](CC)CC)cc-3oc2c1.[Cl-] [Rhodamine B]
Pearson correlation with the mETC TFAP, r [1, 7]: 0.810
MMP assay hitCall [2]: 0

CCc1cccc(C)c1N(C(=O)CCl)[C@@H](C)COC [S-Metolachlor]
Pearson correlation with the mETC TFAP, r [1, 7]: 0.856
MMP assay hitCall [2]: 0

O.O.O.O.[Na+].[O-]c1ccccc1-c1ccccc1 [Sodium 2-phenylphenate tetrahydrate]
Pearson correlation with the mETC TFAP, r [1, 7]: 0.807
MMP assay hitCall [2]: 1

Cc1cc(C)c(C2=C(OC(=O)CC(C)(C)C)C3(CCCC3)OC2=O)c(C)c1 [Spiromesifen]
Pearson correlation with the mETC TFAP, r [1, 7]: 0.816
MMP assay hitCall [2]: 1

COC(=O)Nc1ccc(Cl)c(Cl)c1 [Swep]
Pearson correlation with the mETC TFAP, r [1, 7]: 0.927
MMP assay hitCall [2]: 1

Nc1c2c(nc3ccccc13)CCCC2 [Tacrine, reference compound]
Pearson correlation with the mETC TFAP, r ([1]; 24 h): 0.810
MMP assay hitCall [2]: 0*

Cc1c(C)c2c(c(C)c1O)CCC(C)(COc1ccc(CC3SC(=O)NC3=O)cc1)O2 (centres unmarked) [Troglitazone]
cell death (HG19/HepG2 cells): caused cell death
concentration of transformation into tertiary signature (HepG2 cells [4]): 60 µM
concentration of transformation of primary TFAP into secondary TFAP (threshold for off-target effects) (HepG2 cells [4]): 20 µM
similarity r with the TFAP for hydrogen peroxide (HepG2 cells [3]; at 60 uM): > 0.8
maximum plasma concentration [5]: 6.4 µM

COP(=O)(OC)O/C(=C\Cl)c1cc(Cl)c(Cl)cc1Cl [Z-Tetrachlorvinphos]
Pearson correlation with the mETC TFAP, r [1, 7]: 0.892
MMP assay hitCall [2]: 1

CN(C)c1ccc(C(=N)c2ccc(N(C)C)cc2)cc1 [auramine, auramine O]
DNA damage TFAP elicited (weak or strong damage cluster) (DNA damage): only the strong damage TFAP

[Cl][Cd][Cl] [cadmium chloride]
retrieved by querying the Attagene dataset with the invariant UPP signature [6]: retrieved

CCO [ethanol]
retrieved by querying the TFAP database with the invariant signature for AKT inhibitors (Akt kinase): retrieved

O=c1[nH]c(=O)n([C@H]2C[C@H](O)[C@@H](CO)O2)cc1F [floxuridine]
DNA damage TFAP elicited (weak or strong damage cluster) (DNA damage): only the weak damage TFAP

CC(C)C(=O)O [isobutyric acid]
retrieved by querying the Attagene dataset with the HDAC TFAP (HDAC): retrieved

Fc1ccc([C@@H]2CCNC[C@H]2COc2ccc3c(c2)OCO3)cc1 [paroxetine, reference compound]
retrieved by querying the TFAP database with the invariant signature for AKT inhibitors (Akt kinase): retrieved

CCc1ccc(CCOc2ccc(CC3SC(=O)NC3=O)cc2)nc1 (centres unmarked) [pioglitazone]
concentration of transformation of primary TFAP into secondary TFAP (threshold for off-target effects) (HepG2 cells [4]): 180 µM

CC(/C=C/C(=O)NO)=C\[C@@H](C)C(=O)c1ccc(N(C)C)cc1 [trychostatin]
retrieved by querying the Attagene dataset with the HDAC TFAP (HDAC): retrieved

Bisphenol A glycidyl methacrylate
Pearson correlation with the mETC TFAP, r [1, 7]: 0.939
MMP assay hitCall [2]: 1

Chlorpyrifos oxon
Pearson correlation with the mETC TFAP, r [1, 7]: 0.827
MMP assay hitCall [2]: 1

Dinocap
Pearson correlation with the mETC TFAP, r [1, 7]: 0.897
MMP assay hitCall [2]: 1

Mancozeb
Pearson correlation with the mETC TFAP, r [1, 7]: 0.867
MMP assay hitCall [2]: 0*

triphenyltin
retrieved by querying the Attagene dataset with the invariant UPP signature ([6]; HepG2, ToxCast TFAP dataset): retrieved
